Data: patent publication US20020061509A1, “Screening assay for the identification of agents which alter expression of PTH-rP” (Osteo Screen, priority 1996, published 2002)

Assays:
[1] = system: PTH-rP promoter; assay: PTH-rP promoter-firefly luciferase reporter assay in stably transfected MDA-MB-231 cells (Clone 30); format: cell-based, human; details: concentration of 3.2 μM
Description: To perform studies on the PTH-rP promoter in whole cells, a human breast cancer cell line, MDA-MB-23 1 (kindly provided by C. Kent Osborne, San Antonio Tex.) and a human lung cancer cell line, RWGT2, were employed. Various PTH-rP promoters, described in Wysolmerski et al., 1996, were linked with the reporter gene firefly luciferase and stably transfected into cell lines. Plasmid constructs included pGL3B-PTH-rP1.1 and pGL4B-PTHrP 4.0. RWGT2 cells and MDA-MB-231 cells were cultured in DMEM (Life Technologies, Grand Island, N.Y.) with 10% FCS (Hyclone, Logan, Utah), 0.1% penicillin/streptomycin and 0.1% nonessential amino acids (Gibco) in 37° C. atmosphere of 5% CO2 /air.
Before stable transfection of MDA-MB-231 cells with pGL3B-PTH-rP1.1, the concentration of geneticin (G418) required to kill MDA 231 cells was determined to be 500 μg/ml. […]
Sucloning consisted of diluting the geneticin resistant MDA-MB-2311 cells containing pGL3B-PTHrP1.1 to a concentration of 0.3 cells/100 μl. […] The luciferase activity was assessed by luminometer. […] Routinely, 20 μl of cell lysate was mixed with 100 μl of luciferase assay reagent (270 μM co-enzyme A, 470 μM luciferin and 530 μM ATP) and the luciferase activity was measured for 10 seconds in a Turner TD-20e luminometer. […] The protein concentration was assessed using BioRed reagents. […]

[2] = system: RWGT2 cells (human squamous cell carcinoma of the lung); assay: Hypercalcemia study: nude mice inoculated with RWGT2 cells; format: in vivo, BALB/c nude mice
Description: (§1) Compounds which are identified as regulating PTH-rP production were initially tested for their capacity to inhibit hypercalcemia in vivo by injecting tumor cells into nude mice and treating the mice with the potential inhibitory compounds. Specifically, compounds to be tested were injected into the subcutaneous tissue, intramuscularly, or intravenously into nude mice which were also inoculated with the human cancer cells which produce PTH-rP. The effects on the capacity of the tumor cells to cause hypercalcemia are then assessed over 2-4 weeks.
The tumor, designated RWGT2, is a human squamous cell carcinoma of the lung that was obtained from a hypercalcemic cancer patient (Guise et al, 1993). Metastatic tumor tissue was taken at the time of surgical repair of a pathologic fracture of the femur and implanted into athymic nude mice. The mice developed hypercalcemia, tumors, and increased serum PTH-rP concentrations. Tumor tissue from the mice was used to establish this cell line in culture. The cells produced PTH-rP in culture and reliably produced tumors and hypercalcemia when inoculated intramuscularly into the nude mice.
The RWGT2 cells are grown in culture in T75 flasks in α-minimal essential medium (αMEM, Hazelton Biologics Inc., Lenexa, Kans.) with 10% fetal calf serum and passaged twice a week. The mice are inoculated with RWGT2 cells by subcutaneous inoculation of 1×10^6 cells into the right flank of the upper leg.
All animal studies are conducted in accordance with the NIH Guide for the Care and Use of Laboratory Animals. Male BALB/c nude mice (Harlen), 4-6 weeks of age, are housed in a laminar flow isolator hood with a 12-hour-light/12-hour-dark cycle. Water, supplemented with multivitamins (Lymphomed, Melrose Park, Ill.) and autoclaved mouse chow (Ralston-Purina, St. Louis, Mo.) were provided ad libitum.
Weekly, the mice (each group n=5) are weighed and tumor diameters (long axis and mean axis width) are measured using calipers. Also whole blood samples for ionized calcium (Ca^2+) determination is obtained by retro-orbital puncture under anesthesia and measured using a Ciba Corning 634 ISE Ca^++/pH analyzer. Finally, blood samples for PTH-rP measurements is obtained by retro-orbital puncture and collected on ice, into pediatric vacutainer tubes containing ethylenediamine tetraacetate (EDTA) (Becton Dickinson, Rutherford, N.J.) and aprotinin (Sigma Chemical Company, St. Louis, Mo.), 400KIU/ml and stored at −70° C. Immunoreactive PTH-rP is measured using a 2 site IRMA kit available from Nichols Institute (San Juan Capistrano, Calif.).
For all experiments compound is administered when hypercalcemia is evident (treatment phase) or from the time of inoculation of RWGT2 cells (prevention phase).

[3] = system: MDA-MB-231 cells (human breast cell carcinoma); assay: Osteolytic bone metastases study: nude mice inoculated with MDA-MB-231 cells into the left ventricle; format: in vivo, BALB/c nude mice; details: 50 mg/kg/day; vs vehicle alone
Description: as §1, with “inhibit bone metastases” for “inhibit hypercalcemia”, “cause osteolytic bone lesions” for “cause hypercalcemia”
The tumor, named MDA-MB-231, is a human breast cell carcinoma. […]
Weekly, the mice are weighed and whole blood samples for ionized calcium (Ca^2+) determination are obtained by retro-orbital puncture under anesthesia and measured using a Ciba Coming 634 ISE Ca^++/pH analyzer.
The number of osteolytic bone metastases is determined on radiographs as described by Nakai (1992). […] The area of osteolytic bone metastases is calculated using a computerized image analysis system in which examination of osteolytic lesions from radiographs is achieved using a fluorescent light box (Kaiser, Germany) and Macro TV Zoom lens 18-108 mm f2,5 (Olympus, Japan) attached to a color video camera (Model DXC- 1 51 Sony, Japan). […] Quantitation of lesion area is performed using image analysis software (Java, Jandel Video Analysis, Jandel Scientific, Calif.). […]

[4] = 50 mg/kg/day, administered from day 0 (prevention phase), vs vehicle alone

C[n+]1c2cc(N)ccc2cc2ccc(N)cc21.[Cl-] [MS 01500618, acriflavinium hydrochloride] was tested, and the “stimulation of the PTH-rP promoter assay” value [1] was “about 8 fold”.

With C(=NNc1nnn[nH]1)c1ccccc1 [OSW3, 5-benzylidene hydrazino-1,2,34-tetrazole] the PTH-rP concentrations [2, 4] was “able to lower”, the “whole blood calcium concentrations” value [2, 4] was “able to lower whole blood calcium concentrations” and the “whole blood calcium concentrations” value ([2]; 50 mg/kg/day, after hypercalcemia is evident (treatment phase), vs vehicle alone) was “able to lower whole blood calcium concentrations”. For the same compound, the “lesion area of osteolytic metastases” value [3] was “able to significantly lower” and the “lesion number of osteolytic metastases” value [3] was “able to significantly lower”.

In the case of Nc1nc2nc[nH]c2c(=S)[nH]1 [OSW6, 6-thioguanine], the “whole blood calcium concentrations” value ([2]; 10 mg/kg/day, administered from day 0 (prevention phase), vs vehicle alone) is reported as “able to significantly lower whole blood calcium concentrations”, the “whole blood calcium concentrations” value ([2]; 10 mg/kg/day, after hypercalcemia is evident (treatment phase), vs vehicle alone) is reported as “able to lower whole blood calcium concentrations” and the “size of the tumor” value ([2]; hypercalcemic mice treated (treatment phase)) is reported as “reduced”.
